From PubChem BioAssay (NCI)
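These data come from cells grown in 96-well plates and exposed to compound for 48 hours at five concentrations. Abbreviation: GI50, concentration required for 50% inhibition of growth. TGI marks complete inhibition of growth.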

Tests used:
Experiment in all cases: growth of human tumour cells (NCI), 48 h
A498 renal = tested on: A498 renal
SK-MEL-5 melanoma = tested on: SK-MEL-5 melanoma
HT29 colon = tested on: HT29 colon
SK-MEL-2 melanoma = tested on: SK-MEL-2 melanoma
NCI-H226 lung = tested on: NCI-H226 lung
ACHN renal = tested on: ACHN renal
OVCAR-8 ovarian = tested on: OVCAR-8 ovarian
CCRF-CEM leukemia = tested on: CCRF-CEM leukemia
NCI/ADR-RES ovarian = tested on: NCI/ADR-RES ovarian
SF-539 CNS = tested on: SF-539 CNS
MOLT-4 leukemia = tested on: MOLT-4 leukemia
NCI-H522 lung = tested on: NCI-H522 lung
SF-268 CNS = tested on: SF-268 CNS
BT-549 breast = tested on: BT-549 breast
KM12 colon = tested on: KM12 colon
HOP-62 NSCLC = tested on: HOP-62 NSCLC
COLO 205 colon = tested on: COLO 205 colon
RPMI-8226 leukemia = tested on: RPMI-8226 leukemia
MCF7 breast = tested on: MCF7 breast
SN12C renal = tested on: SN12C renal
TK-10 renal = tested on: TK-10 renal
UACC-257 melanoma = tested on: UACC-257 melanoma
PC-3 prostate = tested on: PC-3 prostate
NCI-H460 lung = tested on: NCI-H460 lung
LOX IMVI melanoma = tested on: LOX IMVI melanoma
SNB-19 CNS = tested on: SNB-19 CNS
NCI-H23 lung = tested on: NCI-H23 lung
HCT-116 colon = tested on: HCT-116 colon

With `O=C(Cc1ccccc1)NC(c1ccc(Cl)cc1)c1c(O)ccc2ccccc12` (stereo unspecified) the GI50 (A498 renal) was 0.985 µM, the TGI (A498 renal) was 7.72 µM and the GI50 (SK-MEL-5 melanoma) was 1.73 µM. The TGI (SK-MEL-5 melanoma) was 3.2 µM, the GI50 (HT29 colon) was 3.74 µM and the TGI (HT29 colon) was 11.3 µM. The GI50 (SK-MEL-2 melanoma) was 2.9 µM, the TGI (SK-MEL-2 melanoma) was 6.83 µM and the GI50 (NCI-H226 lung) was 3.15 µM. For the same compound, the TGI (NCI-H226 lung) was 12 µM, the GI50 (ACHN renal) was 2.55 µM and the TGI (ACHN renal) was 6.9 µM. The GI50 (OVCAR-8 ovarian) was 3.56 µM, the TGI (OVCAR-8 ovarian) was 16.9 µM and the GI50 (CCRF-CEM leukemia) was 3.91 µM. The TGI (CCRF-CEM leukemia) was 26.7 µM, the GI50 (NCI/ADR-RES ovarian) was 3.41 µM and the TGI (NCI/ADR-RES ovarian) was 11.5 µM. For the same compound, the GI50 (SF-539 CNS) was 2.53 µM, the TGI (SF-539 CNS) was 7.51 µM and the GI50 (MOLT-4 leukemia) was 3.51 µM. The TGI (MOLT-4 leukemia) was 20.3 µM, the GI50 (NCI-H522 lung) was 2.82 µM and the TGI (NCI-H522 lung) was 7.57 µM. The GI50 (SF-268 CNS) was 4.25 µM, the TGI (SF-268 CNS) was 16 µM and the GI50 (BT-549 breast) was 3.8 µM. For the same compound, the TGI (BT-549 breast) was 12.8 µM, the GI50 (KM12 colon) was 3.62 µM and the TGI (KM12 colon) was 11.7 µM. For the same compound, the GI50 (HOP-62 NSCLC) was 2.84 µM, the TGI (HOP-62 NSCLC) was 8.57 µM and the GI50 (COLO 205 colon) was 1.98 µM. It also gave a TGI (COLO 205 colon) of 3.48 µM, a GI50 (RPMI-8226 leukemia) of 2.84 µM and a TGI (RPMI-8226 leukemia) of 8.36 µM. For the same compound, the GI50 (MCF7 breast) was 2.66 µM, the TGI (MCF7 breast) was 9.37 µM and the GI50 (SN12C renal) was 2.99 µM. The TGI (SN12C renal) was 11.5 µM, the GI50 (TK-10 renal) was 4.17 µM and the TGI (TK-10 renal) was 13.2 µM. For the same compound, the GI50 (UACC-257 melanoma) was 2.77 µM, the TGI (UACC-257 melanoma) was 10.4 µM and the GI50 (PC-3 prostate) was 3.19 µM. For the same compound, the TGI (PC-3 prostate) was 10.6 µM, the GI50 (NCI-H460 lung) was 2.66 µM and the TGI (NCI-H460 lung) was 7.61 µM. The GI50 (LOX IMVI melanoma) was 3.11 µM, the TGI (LOX IMVI melanoma) was 9.71 µM and the GI50 (SNB-19 CNS) was 3.25 µM. The TGI (SNB-19 CNS) was 13.8 µM, the GI50 (NCI-H23 lung) was 2.92 µM and the TGI (NCI-H23 lung) was 9.2 µM. For the same compound, the GI50 (HCT-116 colon) was 2.17 µM and the TGI (HCT-116 colon) was 5.16 µM.
